From patent US10258599B2, “Compounds for use in the prevention or treatment of cancer” (SEMMELWEIS UNIVERSITY, priority 2014, dated 2019)

Legend:
[1] = test system: catecholaminergic neurons; test: Shuttle box: antagonism of tetrabenazine-induced learning deficit (conditioned avoidance reflex); format: in vivo, rat
Experimental: In a modified version of the shuttle box the acquisition of a two-way conditioned avoidance reflex (CAR) was analyzed during 5 consecutive days. The rat was put in a box divided inside into two parts by a barrier with a small gate in the middle, and the animal was trained to cross the barrier under the influence of a conditioned stimulus (CS, light flash). […] One trial consisted of 10 s intertrial interval, followed by 20 s CS. The last 5 s of CS overlaped the 5 s US. At each learning session, the number of CARs, EFs and intersignal reactions (IRs) are automatically counted and evaluated by multi-way ANOVA.
Tetrabenazine-treatment (1 mg/kg s.c.) depletes at least 90% of norepinephrine and dopamine from their stores in the nerve terminals of the catecholaminergic neurons in the brain stem. Due to the weak performance of the catecholaminergic brain engine, the activation of the cortical neurons remains below the level required for the acquisition of a CAR. The learning deficit caused by tetrabenazine-treatment can be antagonized by the administration of a synthetic CAE substance or an A-type MAO inhibitor, whereas selective inhibition of B-type MAO or inhibition of the reuptake of catecholamines and/or serotonin is ineffective (Knoll et al., 1992).

lung carcinoma = test: Longevity study on FVB/N mice: spontaneous lung carcinoma at autopsy; format: in vivo, mouse; settings: for Number of detected lung carcinoma: 18-month, 4 dissected mice
Experimental: Body weight is measured bimonthly.
For monitoring, we planned to sacrifice mice from each group at 6-month, 1-year, 1.5-year and 2-year time-points; the rest of the animals are kept until spontaneous death.
The results are shown in Table 4 and on FIGS. 19 and 20. Significance levels were calculated with two-sided Chi-square test.

Daoy HTB-186 cell line = test: MTT proliferation assay, Daoy medulloblastoma cells; format: cell-based, human; settings: for proliferation of cultured medulloblastoma cells: monotherapy, nine concentrations 10^-14 to 10^-6 M, 72 hours
Experimental: (§1) Human medulloblastoma cell line, Daoy was purchased from ATCCC, UW-228 was obtained from the courtesy of Professor Silber (Univerity of Washington, Seattle, Wash., USA).
(§2) Daoy and UW-228-2 cell lines were maintained in culture medium (each 500 ml Minimum Essential Medium Eagle, Alpha Modification (M8042, Sigma, St Louis, USA) with 50 ml FCS (Gibco), 40 mg Gentamicin (Sandoz), 5 ml sodium-pyruvate (S8636, Sigma, St Louis, USA), 5 ml non-essential-amino acid solution (M7145, Sigma, St Louis, USA), 10 ml L-glutamin (Sigma, St Louis, USA) at 37° C. in humified 5% CO2.
(§3) In each well 3×10^3 Daoy or UW-228-2 cells were seeded in 96-well plates (Sarstedt), solved in 100 μl of its own medium with 10% FCS. 24 hours after seeding, cells were treated for 72 hours by drugs solved in further 100 μl medium. First, both cell lines were treated by (−)-BPAP and (−)-deprenil in monotherapy to determine its dose-effect curves in concentration of 10^−6, 10^−7, 10^−8, 10^−9, […], 10^−11, 10^−12, 10^−13 and 10^−14 M. In combined treatment 10^−3, 3.3×10^−4, […] and 3.7×10^−5 M of temozolomide (Schering Plough, USA) or 0.04, 0.2, 1, 5 μM of Cisplatin (Ebewe Pharma, Austria) or 0.04, 0.2, 1, 5 μM of etoposide (Ebewe Pharma, Austria) or 10^−7, 10^−6, 10^−5 and 10^−4 μM (UW228-2) or 0.001, 0.005, 0.025 and 0.125 μM (Daoy) of Vincristin (Richter Gedeon, Hungary) were applied in monotherapy or combined with 10^−13 or 10^−8 M of (−)-BPAP or (−)-deprenil.
(§4) Cell proliferation was evaluated by MTT (3-(4,5-Dimethylthiazol-2-yl)-2,5-diphenyltetrazolium bromide) assay (M5655, Sigma) after 72-hour treatment by the method described in manufacturer's protocol.

[2] = test system: mouse lung adenocarcinoma tumors; test: Mouse lung adenocarcinoma xenograft model in Balb/c nude mice; format: in vivo
Experimental: (§5) Mouse primary lung adenocarcinoma tumors maintained subcutaneously were utilized in the present study. Tumors with sizes of 3 mm in diameter were implanted subcutaneously in a total of 18 FVB/N female mice with a bodyweight of 25 g. From the day after tumor inoculation, 6-6 animals started receiving (−)-BPAP daily as a subcutaneous injection at a concentration of either 0.0001 mg/kg (low dose) or 0.05 mg/kg (high dose). Tumor sizes were measured twice a week using a digital caliper. Tumor volumes were calculated by the following formula: […]
(§6) Statistical analyses were made by Graphpad Prism 4.03 software. Significances of changes between control and (−)-BPAP-treated groups were assessed by using Mann-Whitney U-test. Significance was declared at the standard p<0.05 level.
Next, the same experiment was repeated using 18 Balb/c nude mice to explore whether the adaptive immune system plays a role in the tumor suppressor action of (−)-BPAP.

[3] = test system: isolated locus coerulei of rats; test: Norepinephrine release from isolated locus coerulei in organ bath; parameters: species or system rat; settings: released within 20 min (FIG. 18)
Experimental: In this study (−)-BPAP was given to the organ bath of the quickly removed locus coerulei of rats. Eight organs were used for the analysis of each concentration. The amount of norepinephrine released within 20 min from the tissue in the presence of different concentrations of (−)-BPAP was measured according to Knoll and Miklya (1995) (Paired Student's t-test. *P<0.01, **P<0.001.)

[4] = test system: catecholaminergic neurons; test: Comparison of CAE potency
Description: All these differences in the efficiency between BPAP and Deprenyl came together from measuring their enhancer effect on the following four enhancer-sensitive brain regulations: dopaminergic, noradrenergic, serotonergic and TMS. Using the enhancer substances as specific experimental tools, we quite unexpectedly discovered the operation of an enhancer-sensitive TMS regulation in the rat brain. As expected, the majority of the enhancer-sensitive regulations and the endogenous enhancer substances pertaining to these regulations are unknown. Enhancer-research is obviously in its pioneer stage.

[5] = test system: mouse lung adenocarcinoma tumors; test: Mouse lung adenocarcinoma xenograft model in FVB/N mice; format: in vivo
Experimental: as §5, §6

UW-228-2 cell line = test: MTT proliferation assay, UW-228-2 medulloblastoma cells; format: cell-based, human; settings: for proliferation of cultured medulloblastoma cells: UW-228-2, monotherapy, nine concentrations 10^-14 to 10^-6 M, 72 hours
Experimental: as §1, §2, §3, §4

[6] = shuttle box, 1 mg/kg tetrabenazine s.c.
[7] = high dose 0.05 mg/kg s.c. daily

## CCCN[C@H](CCC)Cc1cc2ccccc2o1 [(−)-BPAP, (2R)-1-(1-benzofuran-2-yl)-N-propylpentane-2-amine]
[1]; 0.0001 mg/kg (FIG. 4)
  effect on tetrabenazine-induced learning deficit: antagonizing the tetrabenazine-induced learning deficit
[1]; [6]
  dose with the non-specific enhancer effect selected for the longevity study: 50 µg/kg
  optimal dose that exerted the specific enhancer effect: 0.1 µg/kg
  very high dose range effective in antagonizing the tetrabenazine-induced learning deficit (MAO-A inhibition): 2000 to 10000 µg/kg
Lung carcinoma; 0.0001 mg/kg daily
  Number of detected lung carcinoma: 0
Lung carcinoma; 0.05 mg/kg daily
  Number of detected lung carcinoma: 1
Lung carcinoma; extremely low dose (0.0001 mg/kg), 1.5-year (FIG. 20)
  manifestation of lung carcinoma: completely prevented the manifestation of lung carcinoma
Daoy HTB-186 cell line; 10^-13 or 10^-8 M combined with temozolomide, Cisplatin, etoposide or Vincristin
  effectiveness of tumor-cell proliferation inhibiting agents in combination: did not change the effectiveness
Daoy HTB-186 cell line
  proliferation of cultured medulloblastoma cells: did not inhibit the proliferation
Daoy HTB-186 cell line; listed as BPAP
  proliferation of cultured medulloblastoma cells: none of the applied concentrations did Deprenyl or BPAP influence the proliferation
[2]; [7]
  tumor size versus control: did not cause significant changes in tumor size
[2]; low dose 0.0001 mg/kg s.c. daily
  tumor growth (tumor volume) versus control: significant inhibition of tumor growth
[3]
  concentration effect curve of norepinephrine release: bi-modal, bell-shaped
[4]
  potency as CAE substance relative to Deprenyl: ~100 times
[5]; [7]
  tumor volume versus control: did not reach statistical significance
[5]; low dose 0.0001 mg/kg s.c. daily, from day 12 after implantation, p<0.05
  tumor volume versus control: significant differences in tumor volume
UW-228-2 cell line; UW-228-2, 10^-13 or 10^-8 M combined with temozolomide, Cisplatin, etoposide or Vincristin
  effectiveness of tumor-cell proliferation inhibiting agents in combination: did not change the effectiveness
UW-228-2 cell line
  proliferation of cultured medulloblastoma cells: did not inhibit the proliferation
UW-228-2 cell line; listed as BPAP
  proliferation of cultured medulloblastoma cells: none of the applied concentrations did Deprenyl or BPAP influence the proliferation
